Laboratory results published in patent publication US12630606B2, “Peptide deficient-MHC class I/chaperone compositions and methods” (priority 2018, dated 2026).
Where no end group is shown, it is not given here.

Legend:
H-2D^d/TAPBPR complex = H-2D^d/TAPBPR complex (Mus musculus, UniProt P01900)
H-2D^d = H-2D^d (Mus musculus, UniProt P01900); conditions: cited from earlier work
H-2L^d/TAPBPR complex = H-2L^d/TAPBPR complex (Mus musculus, UniProt P01897); experiment: SEC TAPBPR binding with LC-MS peptide occupancy; conditions: QL9 with 10 mM Gly-Phe dipeptide
Sequence of H-2L^d/TAPBPR complex (P01897 25-309 limits assumed): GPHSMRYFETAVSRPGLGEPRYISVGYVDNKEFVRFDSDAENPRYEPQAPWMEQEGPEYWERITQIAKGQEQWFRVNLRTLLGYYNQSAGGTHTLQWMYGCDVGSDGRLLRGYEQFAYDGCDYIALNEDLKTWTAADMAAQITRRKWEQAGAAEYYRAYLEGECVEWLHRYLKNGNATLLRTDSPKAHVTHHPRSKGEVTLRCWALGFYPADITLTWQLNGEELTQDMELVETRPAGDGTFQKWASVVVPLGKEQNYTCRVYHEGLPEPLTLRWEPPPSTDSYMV
Sequence of H-2L^d/TAPBPR complex (P61769 21-119 partner): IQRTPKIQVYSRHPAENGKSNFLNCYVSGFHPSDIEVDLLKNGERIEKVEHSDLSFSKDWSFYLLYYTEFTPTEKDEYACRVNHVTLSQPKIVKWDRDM

[1] = Nano differential scanning fluorimetry (nanoDSF); type: physicochemical; conditions: FIG. 18B
Method: 10 uL of each sample was loaded on the Prometheus NT.48 instrument (NanoTemper) using the high sensitivity capillaries. NanoDSF measurements are performed using a temperature ramp rate of 1° C./min from 25° C. to 95° C. and an LED intensity of 20%. Data is analyzed using the PR Control software (NanoTemper). Melting temperatures (Tm values) correspond to the inflection points of the first derivative of the 330/350 nm fluorescence ratio. Experiments were performed in duplicates and the shaded areas (FIG. 18B) are representative of the error.

Sequence of H-2D^d/TAPBPR complex (P01900 25-311): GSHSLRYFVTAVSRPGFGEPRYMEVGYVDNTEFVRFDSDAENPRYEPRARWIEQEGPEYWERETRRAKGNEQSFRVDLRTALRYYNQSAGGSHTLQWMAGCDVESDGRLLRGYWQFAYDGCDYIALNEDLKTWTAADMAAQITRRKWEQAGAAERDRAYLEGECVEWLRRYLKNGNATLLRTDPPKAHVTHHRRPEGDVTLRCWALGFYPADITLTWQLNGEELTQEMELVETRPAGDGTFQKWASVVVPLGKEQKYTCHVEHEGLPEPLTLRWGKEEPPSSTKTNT
Sequence of H-2D^d/TAPBPR complex (P61769 21-119, further chain): as the sequence (P61769 21-119 partner) above
Sequence of H-2D^d (P61769 21-119): as the sequence (P61769 21-119 partner) above
Sequence of H-2D^d (P01900 25-311): as the sequence (P01900 25-311) above

Substance: GPGRAFVTI [gP18-I10]
- peptide occupancy in the presence of TAPBPR (H-2D^d/TAPBPR complex): dissociates in the presence of TAPBPR
- increase in the peptide off-rate relative to full-length P18-I10 (H-2D^d): 100 fold

Substance: QLSPFPFDL [QL9, reference compound]
- peptide occupancy in the presence of TAPBPR (H-2L^d/TAPBPR complex): could obtain empty H-2L^d:TAPBPR complexes

Substance: TAPBPR: TAPasin Binding Protein Related chaperone, recombinant luminal domain
- Tm (nanoDSF inflection point) [1]: 52.5 °C

Substance: _PNVNIHNF (not fully specified (N-terminus); printed as _PNVNIHNF) [gp29]
- peptide occupancy in the presence of TAPBPR (H-2L^d/TAPBPR complex): remained bound
